Reference: PubChem BioAssay AID2060511 (Molecular Pharmacology Branch, DTP, NCI, 2025)
Several values for one entry are separate records, joined by “and”; a condition that tells them apart may be missing. Identical values can stand only once.

System: 422866-222-R5-J1-PDC spheroids with HUVEC/MSC, viability
Test: Anticancer human tumor 422866-222-R5-J1-PDC patient-derived pancreatic adenocarcinoma cell line growth inhibition [GQUAD]
Details: for viability, T/C: stronger effect = lower value
Source text: DNA G-quadruplex Stabilizer Agents in Combinations in Complex Spheroids
A high-throughput screen of multi-cell type tumor spheroids was designed to identify active combinations of DNA G-quadruplex stabilizer agents and targeted small molecules. Complex spheroids include a stromal component modeled by human endothelial cells (HUVEC) and fibroblasts modeled by human mesenchymal stem cells (MSCs). The concentration ranges selected for each drug and investigational agent were based upon clinically achievable concentrations if the clinical Cmax of the agent was known.
Compounds. The drugs and investigational agents: pidnarulex (CX-5461; NSC782164), APTO-253 (NSC789042), BRACO-19 (NSC847499), peposertib (NSC802822), ceralasertib (NSC780249), elimusertib (NSC800525), camonsertib (NSC841442), AZD-1390 (NSC803789), olaparib (NSC753686), talazoparib (NSC767125), ART-558 (NSC835418), sotorasib (NSC818433), MRTX-1133 (NSC836407), SN-38 (NSC673596), topotecan (NSC609699), etoposide (NSC141540), doxorubicin (NSC123127), gemcitabine (NSC613327), 5-fluorouracil (NSC19893), paclitaxel (NSC125973), vemurafenib (NSC761431), panobinostat (NSC761190), R-306465 (JNJ-16241199; NSC773264), adavosertib (NSC754352), TP-3654 (NSC805149), carboplatin (NSC241240), KSQ-4279 (NSC840948), and staurosporine (NSC755774) were obtained from the National Cancer Institute (NCI) Developmental Therapeutics Program Chemical Repository (34). The FDA-approved anticancer drug set is available from the NCI Developmental Therapeutics Program. […] The stock solutions were prepared in dimethyl sulfoxide (DMSO, Sigma-Aldrich, St. Louis, MO, cat. D2650) at 800-fold the tested concentration and stored at -70 degrees C prior to their use. All drugs and investigational agents were tested over a range starting from a high concentration at or near the clinical Cmax and decreasing in half-log increments. If the clinical Cmax for an agent had not been determined, the highest concentration tested was 10 microM.
2.3 Cell Culture. All cells were maintained in an incubator at 37 degrees C and 5% CO2 with 95% humidity. The PDC lines were cultured according to standard operating procedures established by the NCI PDMR. All PDCs were thawed and cultured in Matrigel-coated flasks prepared with a working solution of 1X Ham's F-12 nutrient mix, without supplementation (Invitrogen, cat. 11765054), 100 U/mL penicillin-streptomycin (Invitrogen, cat. 15140122), and 2.5% Matrigel (Corning Inc., cat. 354248) for the first three passages. The 857933-349-R-J2-PDC line was cultured in 6C/Colon 1B media, which includes advanced DMEM/F-12 (Thermo Fisher Scientific, cat. 12634028), 10 mM HEPES (Thermo Fisher Scientific, cat. 15630080), 1X GlutaMAX supplement (Thermo Fisher Scientific, cat. 35050061), 0.1 mg/mL primocin (InvivoGen, cat. ant-pm-2), 10% defined fetal bovine serum, heat inactivated (HyClone Laboratories Inc., cat. SH30070.03HI), 50% L-WRN conditioned media (ATCC, cat. CRL-3276), 1.25 mM N-Acetyl-L-cysteine (Sigma-Aldrich, cat. A9165), 10 mM nicotinamide (Sigma-Aldrich, cat. N0636), 1X B-27 supplement (Thermo Fisher Scientific, cat. 17504044), 1X N-2 supplement (Thermo Fisher Scientific, cat. 17502048), 10 microM Y-27632 dihydrochloride (Tocris Bioscience, cat. 1254), and 50 ng/mL human EGF recombinant protein (Thermo Fisher Scientific, cat. PHG0311). The 485176-168-R4-J1-PDC line was cultured in Panc media, which includes all 6C/Colon 1B media components plus 100 ng/mL human FGF-10 (Thermo Fisher Scientific, cat. 100-26), 500 nM SB-431542 (Selleckchem, cat. S1067), and gastrin (Tocris, cat. 3006).
[…]

[1] = curve of first compound, second compound 0.0316 µM
[2] = curve of first compound, second compound 0.1 µM
[3] = curve of first compound, second compound 0.316 µM
[4] = curve of first compound, second compound 1 µM
[5] = curve of first compound, second compound 3.16 µM
[6] = curve of first compound, second compound 10 µM
[7] = second compound 0.0316 µM, first compound 0.0316 µM
[8] = second compound 0.0316 µM, first compound 0.1 µM
[9] = second compound 0.0316 µM, first compound 0.316 µM
[10] = second compound 0.0316 µM, first compound 1 µM
[11] = second compound 0.0316 µM, first compound 3.16 µM
[12] = second compound 0.0316 µM, first compound 10 µM
[13] = second compound 0.1 µM, first compound 0.0316 µM
[14] = second compound 0.1 µM, first compound 0.1 µM
[15] = second compound 0.1 µM, first compound 0.316 µM
[16] = second compound 0.1 µM, first compound 1 µM
[17] = second compound 0.1 µM, first compound 3.16 µM
[18] = second compound 0.1 µM, first compound 10 µM
[19] = second compound 0.316 µM, first compound 0.0316 µM
[20] = second compound 0.316 µM, first compound 0.1 µM
[21] = second compound 0.316 µM, first compound 0.316 µM
[22] = second compound 0.316 µM, first compound 1 µM
[23] = second compound 0.316 µM, first compound 3.16 µM
[24] = second compound 0.316 µM, first compound 10 µM
[25] = second compound 1 µM, first compound 0.0316 µM
[26] = second compound 1 µM, first compound 0.1 µM
[27] = second compound 1 µM, first compound 0.316 µM
[28] = second compound 1 µM, first compound 1 µM
[29] = second compound 1 µM, first compound 3.16 µM
[30] = second compound 1 µM, first compound 10 µM
[31] = second compound 3.16 µM, first compound 0.0316 µM
[32] = second compound 3.16 µM, first compound 0.1 µM
[33] = second compound 3.16 µM, first compound 0.316 µM
[34] = second compound 3.16 µM, first compound 1 µM
[35] = second compound 3.16 µM, first compound 3.16 µM
[36] = second compound 3.16 µM, first compound 10 µM
[37] = second compound 10 µM, first compound 0.0316 µM
[38] = second compound 10 µM, first compound 0.1 µM
[39] = second compound 10 µM, first compound 0.316 µM
[40] = second compound 10 µM, first compound 1 µM
[41] = second compound 10 µM, first compound 3.16 µM
[42] = second compound 10 µM, first compound 10 µM
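Also: spheroids exposed to compounds for seven days before reading.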
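For viability, T/C in this document: percent viability relative to DMSO vehicle control taken as 100%.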

Compound `C=CCn1c(=O)c2cnc(Nc3ccc(N4CCN(C)CC4)cc3)nc2n1-c1cccc(C(C)(C)O)n1` + CN(C)c1ccc(Nc2c3ccc(NC(=O)CCN4CCCC4)cc3nc3cc(NC(=O)CCN4CCCC4)ccc23)cc1 has an IC50 [1] of 459 nM, an IC50 [2] of 682 nM and an IC50 [3] of 489 nM. It also gave an IC50 [4] of 548 nM, an IC50 [5] of 601 nM and an IC50 [6] of 1710 nM. For the same compound, the viability, T/C [7] was 109%, the viability, T/C [8] was 123% and the viability, T/C [9] was 56.4%. For the same compound, the viability, T/C [10] was 37.7%, the viability, T/C [11] was 40.3% and the viability, T/C [12] was 31.5%. The viability, T/C [13] was 106%, the viability, T/C [14] was 96.1% and the viability, T/C [15] was 61.5%. It also gave a viability, T/C [16] of 47.3%, a viability, T/C [17] of 34.2% and a viability, T/C [18] of 37.5%. It also gave a viability, T/C [19] of 128%, a viability, T/C [20] of 95.1% and a viability, T/C [21] of 57.1%. The viability, T/C [22] was 38.4%, the viability, T/C [23] was 34.9% and the viability, T/C [24] was 39.5%. For the same compound, the viability, T/C [25] was 95.3%, the viability, T/C [26] was 77.2% and the viability, T/C [27] was 62.3%. For the same compound, the viability, T/C [28] was 35.4%, the viability, T/C [29] was 39.6% and the viability, T/C [30] was 34.2%. The viability, T/C [31] was 99.7%, the viability, T/C [32] was 87.2% and the viability, T/C [33] was 56.7%. For the same compound, the viability, T/C [34] was 42%, the viability, T/C [35] was 48.2% and the viability, T/C [36] was 42.6%. For the same compound, the viability, T/C [37] was 95%, the viability, T/C [38] was 80% and the viability, T/C [39] was 62.3%. It also gave a viability, T/C [40] of 45.5%, a viability, T/C [41] of 56.3% and a viability, T/C [42] of 45.1%.
For `O=c1[nH]cc(F)c(=O)[nH]1`, the viability, T/C (compound 0.0316 µM) was 103% and 89.7% and 95.6%, the viability, T/C (compound 0.1 µM) was 93.4% and 92.9% and 86.8% and the viability, T/C (compound 0.316 µM) was 91% and 104% and 109%. The viability, T/C (compound 1 µM) was 88% and 89.2% and 87.2%, the viability, T/C (compound 3.16 µM) was 78.2% and 73.6% and 76.3% and the viability, T/C (compound 10 µM) was 71.8% and 68.2% and 62.4%. For the same compound, the IC50 (curve of compound) was > 10000 nM.
Work on `COc1ccc([C@@H](O)c2cc(-c3ncnc4cc(N5CCOCC5)ccc34)c(F)cc2Cl)nn1` + Cc1[nH]c2ccc(F)cc2c1-c1nc2c3cccnc3c3ncccc3c2[nH]1 yielded an IC50 [1] of 4200 nM, an IC50 [2] of 5780 nM and an IC50 [3] of 3270 nM. It also gave an IC50 [4] of 4470 nM, an IC50 [5] of 2630 nM and an IC50 [6] of 2130 nM. For the same compound, the viability, T/C [7] was 81.2%, the viability, T/C [8] was 79.2% and the viability, T/C [9] was 72.2%. It also gave a viability, T/C [10] of 68%, a viability, T/C [11] of 54.7% and a viability, T/C [12] of 35.8%. It also gave a viability, T/C [13] of 90.6%, a viability, T/C [14] of 78.8% and a viability, T/C [15] of 68.6%. The viability, T/C [16] was 60.2%, the viability, T/C [17] was 62.5% and the viability, T/C [18] was 42.1%. The viability, T/C [19] was 95.4%, the viability, T/C [20] was 82.4% and the viability, T/C [21] was 74.9%. For the same compound, the viability, T/C [22] was 60.6%, the viability, T/C [23] was 51.3% and the viability, T/C [24] was 38.8%. For the same compound, the viability, T/C [25] was 75.6%, the viability, T/C [26] was 81.8% and the viability, T/C [27] was 66.9%. It also gave a viability, T/C [28] of 62.8%, a viability, T/C [29] of 57.5% and a viability, T/C [30] of 38.5%. It also gave a viability, T/C [31] of 80.7%, a viability, T/C [32] of 73% and a viability, T/C [33] of 65.4%. The viability, T/C [34] was 64.8%, the viability, T/C [35] was 45.3% and the viability, T/C [36] was 34.6%. It also gave a viability, T/C [37] of 64.2%, a viability, T/C [38] of 69% and a viability, T/C [39] of 78.5%. For the same compound, the viability, T/C [40] was 57.1%, the viability, T/C [41] was 46.2% and the viability, T/C [42] was 33.9%.
